The values below come from patent publication US20260256790A1, “DEBIO-0123 IN COMBINATION WITH TEMOZOLOMIDE AND RADIOTHERAPY FOR USE IN TREATING GLIOMA” (Debiopharm International S.A., priority 2023, published 2026).

Where two headings read alike, the source gives them in different places.

Data set [1] is described as follows: Binding to plasma proteins. The following applies: human. It is filed as in vitro ADME. How it is done: (§1) Thus, the unbound (or free fraction) of the Study Drug and the N^32-desmethyl-Study drug are calculated.
Data set [2] is described as follows: Free fraction in rat plasma (separate experiment, not shown). The data set is classed as in vitro ADME.
Data set [3] in a line: CSF and matching plasma concentrations in glioma patients (clinical trial Arms A and B). It is filed as in vivo, human. How it is done:
In the clinical trial described in Example 9, cerebrospinal fluid (CSF) stabilized with formic acid 0.5% and matching plasma samples collected on K2 EDTA were drawn from 3 patients of Arm A on day 11 of cycle 1 (i.e. 2 patients at 150 mg and 1 patient at 200 mg of Study drug) and 1 patient of Arm B on Week 3 day 1 (i.e. Day 15 after daily doses of Study drug at 90 mg).
Study drug (parent, active moiety) and its active metabolite N^32-desmethyl-Study drug were measured using LC-MS/MS methods. Results were provided in ng per mL of plasma or CSF, and then converted to nmol/L using the molecular weights of the Study drug (511.45 g/mol) and N^32-desmethyl-Study drug (497.42 g/mol).
as §1
In CSF, the total protein concentration varies between 0.2% and 0.5% of the total protein concentration of blood (H. Reiber, Clinica Chimica Acta, 2001; Schilde L M et al., PLoS ONE, 2018), therefore the concentration measured in CSF essentially corresponds to the free fraction of the compounds.
For each of the 4 patients, the ratio CSF/plasma of a given compound (Study drug parent or metabolite) was calculated using the CSF concentration of said compound (in nmol/L) and the unbound or free fraction of said compound in plasma (in nmol/L).

Another data set relates to U251 GBM cell line. Nature of the data set: Colony formation with radiotherapy, U251. The following applies: 0.1 μM to 5.0 μM, irradiated at 1, 2 and 4 Gy, p=0.6. It is filed as cell-based. How it is done: GBM tumor cells (T98G, LN18, SNB-19 and U251) were grown as an adherent monolayer at 37° C. in a humidified atmosphere (5% CO2, 95% air). For experimental use, tumor cells were detached from culture flasks by a 5-minute treatment with trypsin-versene, in Hanks' medium without calcium or magnesium and neutralized by addition of complete culture medium. Cells were counted and viability assessed using a 0.25% trypan blue exclusion assay. All cell lines were appropriately seeded following the conditions for monolayer colony formation in 6-well plates (Ref #152795, Nunc, Dutscher) in 1.9 ml of cell culture medium, at 3 densities for evaluation of a proclonogenic effect. […]
Treatments were performed at 24 hours (D1) after seeding by addition of ×20 concentrated compound or vehicle solutions, to obtain final concentrations of 0.1 μM to 5.0 μM of Compound of formula (I) [referred to as CoF (I) in FIG. 3]. […] After 14 days of incubation, colonies were counted after being stained through incubation with 500 μl of a solution of water containing 0.05% (w/v) of methylene blue (Ref. M4159, Sigma) for 2 hours. Colonies were counted using a colony counter pen (Ref #045855, Dutscher, Brumath, France). The Surviving Fraction was calculated for each condition using the equations described below and plotted on a semi-logarithmic graph using the Linear-Quadratic model. […]

For data set [4], the system named is SF188 cells. Nature of the data set: Colony formation assay in SF188 cells. The data set is classed as cell-based. Particulars: up to 400 nM, 10 days post-treatment. How it is done:
(§2) SF188 cells were transfected with ATRX siRNA (siATRX_1 or siATRX_2) either individually (A) or as a pool (B and C) or control siRNA (siCon) and ATRX deficiency assessed by determining relative ATRX protein levels by western blotting. Control and ATRX-deficient SF188 cells were then treated with compound of formula (I) at a range of concentrations between 0 and 1.5 uM (FIG. 7A) and at 400 nM (FIG. 7B) and drug sensitivities were assessed via an ATP-based cell viability assay or in colony formation assay.
For cell viability assessment, SF188 cells were seeded in 96-well culture plates at 100-500 cells in 100 μl of culture media per well. After overnight incubation, 100 μl of culture media containing compound of formula (I) was added to each well at the desired final concentration. After 72 h, cell viability was assessed by CellTiter-Glo 2.0 according to the manufacturer's instructions. Each condition was tested in triplicate or quadruplicate, and the average viability is presented as a percentage of vehicle-treated cells. For colony formation assessment (FIG. 7C), SF188 cells were seeded on a 6-well plate at 100 cells per well in 1 ml of culture media. […] The number of colonies in each well was counted manually. […] Colony-forming efficiency was determined by normalizing the colony numbers to the vehicle-treated cells.

Data set [5] has as its system SF188 cells. The experiment in a line: ATP-based cell viability assay (CellTiter-Glo 2.0) in control and ATRX-deficient SF188 cells. How it is done: as §2
For cell viability assessment, SF188 cells were seeded in 96-well culture plates at 100-500 cells in 100 μl of culture media per well. After overnight incubation, 100 μl of culture media containing compound of formula (I) was added to each well at the desired final concentration. After 72 h, cell viability was assessed by CellTiter-Glo 2.0 according to the manufacturer's instructions. Each condition was tested in triplicate or quadruplicate, and the average viability is presented as a percentage of vehicle-treated cells. For colony formation assessment (FIG. 7C), SF188 cells were seeded on a 6-well plate at 100 cells per well in 1 ml of culture media. After overnight incubation, 1 ml of culture media containing compound of formula (I) was added to each well at the desired final concentrations up to 400 nM. At 10 days post-treatment, cell colonies were fixed with 70% ethanol for 30 min, washed with distilled water, and stained with Coomassie Blue. The number of colonies in each well was counted manually. Each colony consisted of >50 cells (corresponds to six doublings from a single cell). Colony-forming efficiency was determined by normalizing the colony numbers to the vehicle-treated cells.
In general terms: Cellular ATP, detected with luciferase, serves as a proxy for viable cell number.

In the case of `Cc1cc(Nc2ncc3c(n2)N(C)CN(c2c(Cl)cccc2Cl)C3=O)ccc1C1CCN(C)CC1` [Compound of formula (I)], the fraction unbound in data set [1] was 0.083; in data set [2] it was 0.078. Besides, the “CSF to “unbound plasma” ratio” value in data set [3] (Arm A, 150 mg, day 11 of cycle 1, listed as Study drug) turned out to be 0.33. For the same compound, the Kp at 15 day in data set [3] (human, CSF / unbound plasma, 90 mg, Arm B, 90 mg daily, Week 3 day 1 (Day 15), read-out: CSF to “unbound plasma” ratio) was 0.42. Also, the Kp at 11 day in data set [3] (human, CSF / unbound plasma, 150 mg, Arm A, 150 mg, day 11 of cycle 1, read-out: CSF to “unbound plasma” ratio) was 0.35; in data set [3] (human, CSF / unbound plasma, 200 mg, Arm A, 200 mg, day 11 of cycle 1, read-out: CSF to “unbound plasma” ratio), 0.38. For the same compound, the concentration at 15 day in data set [3] (human, CSF, 90 mg, Arm B, 90 mg daily, Week 3 day 1 (Day 15), read-out: CSF concentration) stood at 21.3 nM; in data set [3] (human, CSF, 90 mg, Arm B, 90 mg daily, Week 3 day 1 (Day 15), read-out: Raw data concentration in CSF) it was 10.9 ng/mL; in data set [3] (human, plasma (unbound), 90 mg, Arm B, 90 mg daily, Week 3 day 1 (Day 15), read-out: Unbound plasma concentration), 50.3 nM; in data set [3] (human, plasma, 90 mg, Arm B, 90 mg daily, Week 3 day 1 (Day 15), read-out: Raw data concentration in plasma) it was 309 ng/mL. Moreover, the concentration at 11 day in data set [3] (human, CSF, 200 mg, Arm A, 200 mg, day 11 of cycle 1, read-out: CSF concentration) was 19.8 nM; in data set [3] (human, CSF, 200 mg, Arm A, 200 mg, day 11 of cycle 1, read-out: Raw data concentration in CSF), 10.1 ng/mL; in data set [3] (human, plasma (unbound), 200 mg, Arm A, 200 mg, day 11 of cycle 1, read-out: Unbound plasma concentration), 52.4 nM; in data set [3] (human, plasma, 200 mg, Arm A, 200 mg, day 11 of cycle 1, read-out: Raw data concentration in plasma) it was 322 ng/mL. The Kp in data set [3] (human, CSF/unbound plasma, 4 patients, Arms A and B, read-out: CSF/plasma ratio) was in the range of 0.33 to 0.42. Moreover, in the data set with U251 GBM cell line, the “Effect on radiotherapy (surviving fraction, colony formation)” value is reported as “not significant”. The “Surviving fraction of cells, colony formation assay” value with SF188 cells [4] is on record as “significantly reduced the surviving fraction of cells”. Also, the “Viability of SF188 cells” value with SF188 cells [5] (0 to 1.5 uM, 72 h, CellTiter-Glo 2.0) was “significantly reduced the viability of SF188 cells”. Also, the “Cell viability of ATRX-deficient SF188 cells” value with SF188 cells [5] (400 nM, p<0.01) is given as “significantly reduced”. In addition, the “IC50 in SF188 cells with ATRX siRNA relative to control siRNA” value with SF188 cells [5] (cell viability, 72 h) is listed as “less than half of control siRNA”.

What is called fraction unbound is the share of the substance not bound to proteins or other matrix.
